The values below are quoted from earlier work in PMC13080969 (Journal of Chemical Information and Modeling, 2026).

pIC50: −log10 of the molar value.

On the set-up of data set [1]: method as in PMID 39334981. The note with it: clinical comparators; read-out: CC50 (cytotoxicity); cited from earlier work.
Data set [2] has as its system intracellular L. infantum amastigotes. The arrangement: method as in PMID 39334981. Conditions: clinical comparators, cited from earlier work; for pIC50: read-out: IC50 against intracellular L. infantum amastigotes.

With `C[C@@H]1[C@H](O)[C@@H](C)/C=C/C=C/C=C/C=C/C=C/C=C/C=C/[C@H](O[C@@H]2O[C@H](C)[C@@H](O)[C@H](N)[C@@H]2O)C[C@@H]2O[C@](O)(C[C@@H](O)C[C@@H](O)[C@H](O)CC[C@@H](O)C[C@@H](O)CC(=O)O[C@H]1C)C[C@H](O)[C@H]2C(=O)O` [Amphotericin B], the half-maximal cytotoxic concentration (CC50) in data set [1] is 1.2 µM. In data set [2], the SI is 8.6 and the pIC50 was 6.85.
For `CCCCCCCCCCCCCCCCOP(=O)([O-])OCC[N+](C)(C)C` [miltefosine], the CC50 in data set [1] is 51.1 µM. Besides, in data set [2], the SI was 138 and the negative-log IC50 (pIC50) is 6.43.

As a reminder, the CC50 is the concentration at which the toxic effect on the cells reaches its halfway point. A word on the pIC50: it is the IC50 on a negative log10 scale, so that one unit is a factor of ten.
